Results taken from patent US12643886B2 (Ontario Institute for Cancer Research (OICR), priority 2021, dated 2026).

Legend:
Format in all cases: biochemical
[1] = molecular target: T1, Aurora A (Homo sapiens, UniProt O14965); experiment: Counter-screen against Aurora A; conditions: read-out: AUR-A (IC50)
T1 sequence (O14965 1-403): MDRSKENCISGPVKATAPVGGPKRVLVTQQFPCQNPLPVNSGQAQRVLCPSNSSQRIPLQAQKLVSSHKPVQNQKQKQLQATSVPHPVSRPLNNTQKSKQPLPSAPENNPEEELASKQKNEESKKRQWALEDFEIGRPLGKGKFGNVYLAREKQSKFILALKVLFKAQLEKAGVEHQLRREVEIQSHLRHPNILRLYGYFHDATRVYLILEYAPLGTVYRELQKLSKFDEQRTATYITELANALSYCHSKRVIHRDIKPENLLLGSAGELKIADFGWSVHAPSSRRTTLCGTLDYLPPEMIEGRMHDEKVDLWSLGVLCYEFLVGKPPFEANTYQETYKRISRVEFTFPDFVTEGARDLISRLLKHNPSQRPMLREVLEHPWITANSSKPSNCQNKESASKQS
Protocol: (§1) To identify small molecule NUAK inhibitors, a biochemical NUAK2 enzymatic assay were outsourced to Eurofins. This assay was done radiometrically using full-length, recombinant enzyme. NUAK2 (h) was incubated with 8 mM MOPS pH 7.0, 0.2 mM EDTA, 300 μM […], 10 mM magnesium acetate and […] (specific activity and concentration as required). The reaction was initiated by the addition of the Mg/ATP mix. After incubation for 40 minutes at room temperature, the reaction was stopped by the addition of phosphoric acid to a concentration of 0.5%. 10 μL of the reaction was then spotted onto a P30 filtermat and washed four times for 4 minutes in 0.425% phosphoric acid and once in methanol prior to drying and scintillation counting. Compounds were routinely counter-screened against Aurora A and NUAK1. The results are shown in Table 1 where IC50's are reported in the following ranges: A: 0.1-10 nM; B: 11-100 nM; C: 101-1000 nM; D: >1000 nM for the compounds of Formula (I)

[2] = molecular target: T2, NUAK2 (h) (Homo sapiens, UniProt Q9H093); experiment: NUAK2 enzymatic assay (radiometric, Eurofins); conditions: full-length recombinant enzyme
T2 construct: This assay was done radiometrically using full-length, recombinant enzyme; purchased Eurofins
T2 sequence (Q9H093 1-628): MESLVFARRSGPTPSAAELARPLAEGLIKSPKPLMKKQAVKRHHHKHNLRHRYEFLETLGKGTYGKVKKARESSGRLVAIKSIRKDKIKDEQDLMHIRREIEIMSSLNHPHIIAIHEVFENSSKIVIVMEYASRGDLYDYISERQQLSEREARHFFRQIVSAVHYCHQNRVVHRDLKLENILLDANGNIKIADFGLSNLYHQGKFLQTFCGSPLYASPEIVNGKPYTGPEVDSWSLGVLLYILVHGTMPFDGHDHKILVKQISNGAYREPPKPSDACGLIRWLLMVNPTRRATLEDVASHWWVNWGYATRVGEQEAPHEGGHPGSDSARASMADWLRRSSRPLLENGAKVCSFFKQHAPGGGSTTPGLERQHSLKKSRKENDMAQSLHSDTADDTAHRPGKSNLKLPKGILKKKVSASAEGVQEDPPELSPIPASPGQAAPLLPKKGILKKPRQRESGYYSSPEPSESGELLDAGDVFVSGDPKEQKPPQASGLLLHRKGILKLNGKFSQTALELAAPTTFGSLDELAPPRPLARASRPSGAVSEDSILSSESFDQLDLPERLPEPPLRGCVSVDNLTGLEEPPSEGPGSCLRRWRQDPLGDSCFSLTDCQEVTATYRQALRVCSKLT
Protocol: as §1

[3] = molecular target: T3, NUAK1 (Homo sapiens, UniProt O60285); experiment: Counter-screen against NUAK1
T3 sequence (O60285 1-661): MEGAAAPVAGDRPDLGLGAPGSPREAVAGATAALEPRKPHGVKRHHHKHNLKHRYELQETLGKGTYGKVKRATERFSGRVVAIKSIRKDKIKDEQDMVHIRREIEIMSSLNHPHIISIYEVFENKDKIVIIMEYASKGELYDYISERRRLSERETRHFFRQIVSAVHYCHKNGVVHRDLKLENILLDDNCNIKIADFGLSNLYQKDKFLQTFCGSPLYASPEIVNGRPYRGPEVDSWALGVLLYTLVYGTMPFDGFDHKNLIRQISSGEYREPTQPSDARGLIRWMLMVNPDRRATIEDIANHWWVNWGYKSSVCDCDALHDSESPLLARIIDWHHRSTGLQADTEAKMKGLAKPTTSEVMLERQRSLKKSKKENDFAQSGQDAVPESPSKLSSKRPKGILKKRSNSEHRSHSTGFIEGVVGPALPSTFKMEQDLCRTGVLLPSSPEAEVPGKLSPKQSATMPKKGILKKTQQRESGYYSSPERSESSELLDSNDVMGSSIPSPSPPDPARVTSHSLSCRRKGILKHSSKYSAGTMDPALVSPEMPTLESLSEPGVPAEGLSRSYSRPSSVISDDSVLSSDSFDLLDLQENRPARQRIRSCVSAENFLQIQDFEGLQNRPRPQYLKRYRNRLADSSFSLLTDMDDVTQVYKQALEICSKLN
Protocol: as §1

IC50 [1]	IC50 [2]	IC50 [3]	Structure (SMILES)
> 1000 nM	0.1 to 10 nM	11 to 100 nM	COc1cc2c(cc1Nc1ncc(Cl)c(Nc3cccc4c3C(=O)NC4)n1)CCN(C(C)C)C2 [Compound I-18, 7-((5-chloro-2-((2-isopropyl-7-methoxy-1,2,3,4-tetrahydroisoquinolin-6-yl)amino)pyrimidin-4-yl)amino)isoindolin-1-one]
> 1000 nM	11 to 100 nM	101 to 1000 nM	COc1cc2c(cc1Nc1ncc(Cl)c(Nc3cccc4c3C(=O)NC4)n1)CCN(CCC(F)(F)F)C2 [Compound I-19, 7-((5-chloro-2-((7-methoxy-2-(3,3,3-trifluoropropyl)-1,2,3,4-tetrahydroisoquinolin-6-yl)amino)pyrimidin-4-yl)amino)isoindolin-1-one]
101 to 1000 nM	0.1 to 10 nM	11 to 100 nM	CN1CCN(C2CCN(c3ccc(Nc4ncc(C(F)(F)F)c(Nc5cccc6c5C(=O)NC6)n4)c(OC(F)F)c3)CC2)CC1 [Compound I-20, 7-((2-((2-(difluoromethoxy)-4-(4-(4-methylpiperazin-1-yl)piperidin-1-yl)phenyl)amino)-5-(trifluoromethyl)pyrimidin-4-yl)amino)isoindolin-1-one]
101 to 1000 nM	11 to 100 nM	11 to 100 nM	COc1cc2c(cc1Nc1ncc(C(F)(F)F)c(Nc3cccc4c3C(=O)NC4)n1)CN(C)CC2 [Compound I-21, 7-((2-((6-methoxy-2-methyl-1,2,3,4-tetrahydroisoquinolin-7-yl)amino)-5-(trifluoromethyl)pyrimidin-4-yl)amino)isoindolin-1-one]
101 to 1000 nM	0.1 to 10 nM	11 to 100 nM	COc1cc2c(cc1Nc1ncc(C(F)(F)F)c(Nc3cccc4c3C(=O)NC4)n1)CCN(C)C2 [Compound I-22, 7-((2-((7-methoxy-2-methyl-1,2,3,4-tetrahydroisoquinolin-6-yl)amino)-5-(trifluoromethyl)pyrimidin-4-yl)amino)isoindolin-1-one]
101 to 1000 nM	11 to 100 nM	11 to 100 nM	COc1cc2c(cc1Nc1ncc(Cl)c(Nc3cccc4c3C(=O)NC4)n1)CNCC2 [Compound I-23, 7-((5-chloro-2-((6-methoxy-1,2,3,4-tetrahydroisoquinolin-7-yl)amino)pyrimidin-4-yl)amino)isoindolin-1-one]
> 1000 nM	0.1 to 10 nM	11 to 100 nM	O=C1NCc2cccc(Nc3nc(Nc4ccc(N5CCNCC5)cc4OC(F)F)ncc3Cl)c21 [Compound I-24, 7-((5-chloro-2-((2-(difluoromethoxy)-4-(piperazin-1-yl)phenyl)amino)pyrimidin-4-yl)amino)isoindolin-1-one]
> 1000 nM	11 to 100 nM	11 to 100 nM	COc1cc2c(cc1Nc1ncc(Cl)c(Nc3cccc4c3C(=O)NC4)n1)CNCC21CC1 [Compound I-25, 7-((5-chloro-2-((6′-methoxy-2′,3′-dihydro-1′H-spiro[cyclopropane-1,4′-isoquinolin]-7′-yl)amino)pyrimidin-4-yl)amino)isoindolin-1-one]
> 1000 nM	11 to 100 nM	11 to 100 nM	COc1cc2c(cc1Nc1ncc(Cl)c(Nc3cccc4c3C(=O)NC4)n1)CCNCC2 [Compound I-26, 7-((5-chloro-2-((8-methoxy-2,3,4,5-tetrahydro-1H-benzo[d]azepin-7-yl)amino)pyrimidin-4-yl)amino)isoindolin-1-one]
> 1000 nM	0.1 to 10 nM	11 to 100 nM	CN1C[C@@H]2CN(c3ccc(Nc4ncc(Cl)c(Nc5cccc6c5C(=O)NC6)n4)c(OC(F)F)c3)C[C@@H]2C1 [Compound I-28, 7-((5-chloro-2-((2-(difluoromethoxy)-4-((3aR,6aS)-5-methylhexahydropyrrolo[3,4-c]pyrrol-2(1H)-yl)phenyl)amino)pyrimidin-4-yl)amino)isoindolin-1-one]
